Values of other authors, collected in US8536378B2 (The Board of Trustees of the Leland Stanford Junior …, priority 2007, dated 2013).

Experiments:
[1] = tested on: latent HIV; conditions: latently infected CD4+ T cells
[2] = tested on: latent HIV-1; conditions: fold more potent than prostratin
[3] = tested on: CD4 and CXCR4 receptors
[4] = estimate in reference note 20
[5] = compared with other phorbol esters such as PMA
[6] = tested on: T-lymphoblastoid CEM-SS and C-8166 cell lines; conditions: in vitro

| SMILES | HIV gene expression / activation of latent HIV [1] | potency in activating latent HIV-1 relative to prostratin [2] | downregulation of CD4 and CXCR4 receptors [3] | CD4 receptors on cell surfaces ([3]; CEM-SS and MT-4 cell lines) | estimated oral bioavailability [4] | tumor-promoting activity [5] | cytotoxicity: concentration up to which no sign of cytotoxicity was observed ([6]; CEM-SS and C-8166 cell lines) | prostratin concentration at which cell viability was restored to the level of uninfected controls ([6]; HIV-infected CEM-SS and C-8166 cell lines) |
| --- | --- | --- | --- | --- | --- | --- | --- | --- |
| CCCCCCCCCCCCCC(=O)O[C@@H]1[C@@H](C)[C@@]2(O)[C@@H](C=C(CO)C[C@]3(O)C(=O)C(C)=C[C@@H]23)[C@@H]2C(C)(C)[C@]12OC(C)=O [PMA, phorbol 12-myristate-13-acetate, reference compound] | activate latent HIV | – | – | – | – | – | – | – |
| CC1=C[C@H]2[C@@]3(O)[C@H](C)C[C@]4(OC(=O)Cc5ccccc5)C([C@@H]3C=C(CO)C[C@]2(O)C1=O)C4(C)C (stereo partly drawn) [DPP, 12-deoxyphorbol-13-phenylacetate] | – | 20-30 fold | downregulates CD4 and CXCR4 receptors at nanomolar concentrations | – | – | – | – | – |
| CC(=O)O[C@@]12C[C@@H](C)[C@@]3(O)[C@@H](C=C(CO)C[C@]4(O)C(=O)C(C)=C[C@@H]34)[C@@H]1C2(C)C [prostratin, 12-deoxyphorbol-13-acetate] | induces HIV gene expression | – | – | significantly reduced | ~28% | does not exhibit the tumor-promoting activity | > 25 µM | approximately 1 μM |
